Experimental data: PubChem BioAssay (NCI)
Where “and” joins values, the source holds several entries; their conditions need not be identical. Equal entries are not always repeated.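 Five compound concentrations were applied to cells in 96-well plates for 48 hours; endpoints were derived by simple linear interpolation of the resulting dose-response curve. GI50: concentration for 50% inhibition of growth. TGI: total growth inhibition.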

How the values were obtained:
Assay in all cases: DTP human tumour cell line panel, 48 h
[1] = tested on: KM12 colon
[2] = tested on: SN12C renal
[3] = tested on: KM20L2 colon
[4] = tested on: LXFL 529 NSCLC
[5] = tested on: SNB-19 CNS
[6] = tested on: ACHN renal
[7] = tested on: TK-10 renal
[8] = tested on: OVCAR-5 ovarian
[9] = tested on: U251 CNS
[10] = tested on: HOP-62 NSCLC

SMILES	GI50 [1]	TGI [1]	GI50 [2]	TGI [2]	GI50 [3]	TGI [3]	GI50 [4]	TGI [4]	GI50 [5]	TGI [5]	GI50 [6]	TGI [6]	GI50 [7]	TGI [7]	GI50 [8]	TGI [8]	GI50 [9]	TGI [9]	GI50 [10]	TGI [10]
CC(=O)O.CC(=O)O.CC(=O)O.CC(=O)O.CC(=O)O.CC(=O)O.O.[Ti].[Ti]	> 100 µM	> 100 µM	> 100 µM	> 100 µM	> 100 µM	> 100 µM	> 100 µM	> 100 µM	65.6 µM	> 100 µM	> 100 µM	> 100 µM	> 100 µM	> 100 µM	> 100 µM	> 100 µM	> 100 µM	> 100 µM	> 100 µM	> 100 µM
O=S(=O)([O-])c1ccc2c(c1)-c1nc-2nc2[n-]c(nc3nc(nc4[n-]c(n1)c1ccc(S(=O)(=O)[O-])cc41)-c1cc(S(=O)(=O)[O-])ccc1-3)c1ccc(S(=O)(=O)[O-])cc21.[Cu+2].[Na+]	8.36 µM	> 76.8 µM	> 100 µM	> 100 µM	2.35 µM	> 100 µM	26.5 µM	> 100 µM	> 68.4 µM	> 100 µM	> 74.3 µM	> 100 µM	> 55.9 µM	> 100 µM	> 100 µM	> 100 µM	40.3 µM	> 100 µM	> 100 µM	> 100 µM
COc1ccc(NC(=O)CCc2cc(-c3ccc(O)c(OC)c3)nc(NC#N)n2)cc1	–	> 100 µM	–	> 100 µM	–	> 100 µM	–	> 100 µM	–	> 100 µM	–	> 100 µM	–	–	–	> 100 µM	–	> 100 µM	–	> 100 µM
O=C(Nc1nc2ncn(CCI)c2c(=O)[nH]1)c1ccccc1	–	> 100 µM	–	> 100 µM	–	> 100 µM	–	> 100 µM	–	> 100 µM	–	> 100 µM	–	> 100 µM	–	> 100 µM	–	> 96.5 µM	–	> 81.1 µM
CCOC(=O)Oc1c(OC)cc(C(=O)NC2CCc3cc(OC)c(OC)c(OC)c3-c3ccc(SC)c(=O)cc32)cc1OC (centres undefined)	< 0.007 µM	–	0.0136 µM	25.2 µM	0.0119 µM	–	< 0.007 µM	42.1 µM	0.0235 µM	53.6 µM	0.235 µM	> 70 µM	0.163 µM	> 70 µM	> 70 µM	> 70 µM	0.00962 µM	0.287 µM and 0.0579 µM	0.0328 µM	59.6 µM
CNC(=S)NC1CCCCC1NC(=S)NC (centres undefined)	–	> 100 µM	–	> 100 µM	–	> 100 µM	–	> 100 µM	–	> 100 µM	–	> 100 µM	–	–	–	> 100 µM	–	> 100 µM	–	> 100 µM
Cc1cc(Br)cc(C)c1NC(=O)C(=O)C(C(=O)c1ccc2ccccc2c1)C1OC(=O)c2ccccc21 (centres undefined)	–	34 µM	–	50.5 µM	–	38.7 µM	–	22.3 µM	–	29.3 µM	–	34.7 µM	–	36.9 µM	–	19.7 µM	–	18.7 µM	–	18.7 µM
COC(=O)C12C3C4C1C1C2C3C41C(=O)OC(C)(C)C (centres undefined)	–	> 100 µM	–	> 100 µM	–	> 100 µM	–	> 100 µM	–	> 100 µM	–	> 100 µM	–	> 100 µM	–	> 100 µM	–	> 100 µM	–	> 100 µM
O=C1CCCC/C(=C/c2ccccc2)N1	–	> 100 µM	–	> 100 µM	–	> 100 µM	–	> 100 µM	–	–	–	> 100 µM	–	> 100 µM	–	> 100 µM	–	> 100 µM	–	> 100 µM
O=C(O/N=C1/CCCC/C1=C\c1ccccc1)c1ccccc1	–	> 100 µM	–	> 100 µM	–	> 100 µM	–	> 100 µM	–	> 100 µM	–	> 100 µM	–	> 100 µM	–	> 100 µM	–	> 100 µM	–	> 100 µM
CC(C)(C)[SiH]12(OC(C(F)(F)F)(C(F)(F)F)c3ccccc31)OC(C(F)(F)F)(C(F)(F)F)c1ccccc12	–	15.3 µM	–	19.4 µM	–	7.83 µM	–	16.2 µM	–	13.1 µM	–	21.7 µM	–	26.3 µM	–	6.25 µM	–	6.19 µM	–	–
S=C(N/N=C/c1ccco1)NC12CC3CC(CC(C3)C1)C2	–	> 100 µM	–	> 100 µM	–	> 100 µM	–	> 100 µM	–	> 100 µM	–	> 100 µM	–	> 100 µM	–	> 100 µM	–	> 100 µM	–	> 100 µM
